Test results as given in patent US4530930A, “Antimicrobial 1-ethyl-6,8-difluoro-1,4-dihydro-7-(1-imidazolyl)-4-oxoquinoline-3-carbo xylic acid derivatives” (Kanebo, Ltd., priority 1982, dated 1985).
Converted amounts (≈) assume the structure as drawn. “Also recorded” adds a separate entry of the source. Where two headings read alike, the source gives them in different places.

Columns and labels:
[1] = system: Staphylococcus aureus FDA 209P JC-1; test: MIC; assay type: cell-based; details: FDA209P, gram positive
Protocol: (§1) In accordance with the method as disclosed in Chemotherapy, Vol. 29, pages 76-79 (1981), MIC (μg/ml) of each test compound was measured.

Proteus Vulgaris HX-19 = test: MIC; assay type: cell-based; details: gram negative
Protocol: as §1

[2] = system: Salmonella paratyphi 1015; test: MIC; assay type: cell-based; details: Salmonella enterica
Protocol: as §1

[3] = system: Escherichia coli NIHJ JC-2; test: MIC; assay type: cell-based; details: NIHJJC2, gram negative
Protocol: as §1

[4] = system: Klebsiella pneumoniae PCI-602; test: MIC; assay type: cell-based; details: PCI602, gram negative
Protocol: as §1

[5] = system: Staphylococcus epidermidis; test: MIC; assay type: cell-based; details: gram positive
Protocol: as §1

[6] = system: Pseudomonas aeruginosa IFO 3445; test: MIC; assay type: cell-based
Protocol: as §1

[7] = system: Bacillus subtilis ATCC 6633; test: MIC; assay type: cell-based; details: ATCC6633, gram positive
Protocol: as §1

ddY-strain male mice [8] = test: in vivo; assay type: in vivo; details: 10080 min
Protocol: (§2) The acute toxicities in oral administration and intravenous injection of the test compounds were tested as follows:
In intravenous administration: Each of the test compounds was dissolved in 1N aqueous sodium hydroxide solution and thereto was added a phosphoric acid-saline buffer (pH 7.2) to prepare a test solution. The test solution was intravenously injected to ddy-strain male mice (weighing 20-25 g, five per group). One week after the administration of the test solution, the LD50 was determined in accordance with Weil method.

[9] = system: Serratia marcescens IAM 1184; test: MIC; assay type: cell-based; details: IAM1184, gram negative
Protocol: as §1

[10] = Bioavailability in oral administration in mice; assay type: in vivo, ddY-strain male mice; details: for AUC at 4 h / concentration at 0.5 h / concentration at 1 h / concentration at 2 h / concentration at 4 h: mouse
Protocol: Each of the test compounds was suspended in a 0.5% sodium carboxymethylcellulose to prepare a suspension having a concentration of 5 mg/ml of the compound.
ddY-strain male mice (5 week old, weighing 22 to 25 g, three per group) were used. The suspension was orally administered to mice fasted for 16 hours. The dose of the test compound was adjusted to 50 mg/kg of body weight of animal. 30, 60, 120, and 240 minutes after the administration of the test compound, blood was taken out from each mouse, and the blood sample thus obtained was centrifuged at 3,000 rpm for 20 minutes to obtain a serum sample.

[11] = Bioavailability in oral administration in rats; assay type: in vivo, Wistar-strain male rats; design: AUC at 4 h: concentration or dose not given beside the values; details: rat
Protocol: Each of the test compounds was suspended in a 0.5% sodium carboxymethylcellulose to prepare a suspension having a concentration of 5 mg/ml of the test compound.
Wistar-strain male rats (weighing 160 g ±20 g, three per group) were used. The suspension was orally administered to rats fasted 16 hours. 30, 60, 120, and 240 minutes after the administration of the test compound, blood was taken out from the rats. The blood was centrifuged at 3,000 rpm for 20 minutes to obtain a plasma sample. In the same manner as described in Experiment 2, the concentration (μg/ml) of test compound in plasma and also AUC (μg.hr/ml) were measured.

ddY-strain male mice [12] = test: in vivo; details: mice, p.o., one week, Weil method; 10080 min
Protocol: as §2
(§3) In oral administration: To ddY-strain male mice (weighing 20-25 g, five per group) was administered orally a suspension of each test compound in a 0.5% sodium carboxymethylcellulose. […] J. Biometric Soc., 8, 249 (1959)].

ddY-strain male mice [13] = details: p.o.; data reported at Nippon Kagakuryohogakkai 28th Meeting (1980, Tokyo); 10080 min; cited from earlier work
ddY-strain male mice [14] = details: i.v.; data reported at Nippon Kagakuryohogakkai 28th Meeting (1980, Tokyo); 10080 min; cited from earlier work
Microorganisms = test: In vitro anti-microbial activity (MIC), overall; assay type: cell-based; details: Experiment 1
Protocol: as §1

in vivo = details: mouse, in vivo, po
Protocol: as §2, §3

[15] = IFO3445, gram negative, read-out: MIC
[16] = mice, i.v., one week, Weil method
[17] = serum, mice, oral 50 mg/kg, after 30 min., read-out: Concentration in serum
[18] = serum, mice, oral 50 mg/kg, after 60 min., read-out: Concentration in serum
[19] = serum, mice, oral 50 mg/kg, after 120 min., read-out: Concentration in serum
[20] = serum, mice, oral 50 mg/kg, after 240 min., read-out: Concentration in serum
[21] = mice, oral 50 mg/kg, serum, 1-4 hrs., read-out: AUC
[22] = plasma, rats, oral, after 30 min., read-out: Concentration in plasma
[23] = plasma, rats, oral, after 60 min., read-out: Concentration in plasma
[24] = plasma, rats, oral, after 120 min., read-out: Concentration in plasma
[25] = plasma, rats, oral, after 240 min., read-out: Concentration in plasma
[26] = rats, oral, plasma, 1-4 hrs., read-out: AUC

| Structure (SMILES) | MIC [1] [µg/mL] | MIC (Proteus Vulgaris HX-19) [µg/mL] | MIC [2] [µg/mL] | MIC [3] [µg/mL] | MIC [4] [µg/mL] | MIC [5] [µg/mL] | MIC [6, 15] [µg/mL] | MIC [7] [µg/mL] | MIC [9] [µg/mL] | concentration at 0.5 h [10, 17] [ng/mL] | concentration at 1 h [10, 18] [ng/mL] | concentration at 2 h [10, 19] [ng/mL] | concentration at 4 h [10, 20] [ng/mL] | AUC at 4 h [10, 21] [ng·h/mL] | concentration at 0.5 h [11, 22] [ng/mL] | concentration at 1 h [11, 23] [ng/mL] | concentration at 2 h [11, 24] [ng/mL] | concentration at 4 h [11, 25] [ng/mL] | AUC at 4 h [11, 26] [ng·h/mL] | further results |
| --- | --- | --- | --- | --- | --- | --- | --- | --- | --- | --- | --- | --- | --- | --- | --- | --- | --- | --- | --- | --- |
| CCn1cc(C(=O)O)c(=O)c2cc(F)c(N3CCN(C)CC3)cc21 [B, 1-ethyl-1,4-dihydro-6-fluoro-7-[1-(4-methylpiperazinyl)]-4-oxoquinoline-3carboxylic acid] | 0.39 (≈ 1.17 µM) | 0.1 (≈ 0.3 µM) | 0.1 (≈ 0.3 µM) | 0.39 (≈ 1.17 µM) | 0.1 (≈ 0.3 µM) | 0.78 (≈ 2.34 µM) | 1.56 (≈ 4.68 µM) | 0.2 (≈ 0.6 µM) | – | – | – | – | – | – | – | – | – | – | – | – |
| CCn1cc(C(=O)O)c(=O)c2cc(F)c(N3CCNCC3)c(F)c21 [C, 1-ethyl-6,8-difluoro-1,4-dihydro-4-oxo-7-(1-piperazinyl)quinoline-3-carboxylic acid] | 0.39 (≈ 1.16 µM) | 0.1 (≈ 0.296 µM) | 0.1 (≈ 0.296 µM) | 0.2 (≈ 0.593 µM) | 0.1 (≈ 0.296 µM) | 3.13 (≈ 9.28 µM) | 0.78 (≈ 2.31 µM) | 0.39 (≈ 1.16 µM) | 0.78 (≈ 2.31 µM) | – | – | – | – | – | – | – | – | – | – | LD50 (ddY-strain male mice [8]; [16]): 193 mg/kg; AUC at 4 h ([10]; in vivo, po, 50 mg/kg): 12400 ng·h/mL; concentration at 0.5 h ([10]; in vivo, po, 50 mg/kg): 6260 ± 1570 ng/mL; concentration at 1 h ([10]; in vivo, po, 50 mg/kg): 3510 ± 1290 ng/mL; concentration at 2 h ([10]; in vivo, po, 50 mg/kg): 3410 ± 670 ng/mL; concentration at 4 h ([10]; in vivo, po, 50 mg/kg): 1530 ± 270 ng/mL; AUC at 4 h ([11]; in vivo, po): 26000 ng·h/mL; concentration at 0.5 h ([11]; in vivo, po): 11700 ± 1100 ng/mL; concentration at 1 h ([11]; in vivo, po): 12300 ± 800 ng/mL; concentration at 2 h ([11]; in vivo, po): 6400 ± 300 ng/mL; concentration at 4 h ([11]; in vivo, po): 2000 ± 1800 ng/mL; LD50 (ddY-strain male mice [12]): 1,072 mg/kg |
| CCn1cc(C(=O)O)c(=O)c2cc(F)c(N3CCNCC3)cc21 [Compound A, 1-ethyl-1,4-dihydro-6-fluoro-4-oxo-7-(1-piperazinyl)quinoline-3-carboxylicacid] | 0.39 (≈ 1.22 µM) | 0.1 (≈ 0.313 µM) | 0.1 (≈ 0.313 µM) | 0.39 (≈ 1.22 µM) | 0.1 (≈ 0.313 µM) | 3.13 (≈ 9.8 µM) | – | 0.39 (≈ 1.22 µM) | 0.39 (≈ 1.22 µM) | 1050 ± 240 | 690 ± 70 | 400 ± 50 | 360 ± 30 | 2000 | 1810 ± 140 | 1190 ± 20 | 630 ± 110 | 250 ± 10 | 2990 | MIC ([6]; IFO3445): 1.56 µg/mL (≈ 4.89 µM); LD50 (ddY-strain male mice [13]): > 4,000 mg/kg; LD50 (ddY-strain male mice [14]): 220 mg/kg |
| CCn1cc(C(=O)O)c(=O)c2cnc(-n3ccnc3)cc21 [E, 1-ethyl-1,4-dihydro-7-(1-imidazolyl)-4-oxo-1,6-naphthylidine-3-carboxylic acid] | > 100 | 3.12 (≈ 11 µM) | 12.5 (≈ 44 µM) | > 100 | 25 (≈ 87.9 µM) | > 100 | > 100 | 100 (≈ 352 µM) | 100 (≈ 352 µM) | – | – | – | – | – | – | – | – | – | – | anti-microbial activities in vitro (MIC), in words (Microorganisms): less antimicrobial activities; also recorded: far less activities |
| CC1COc2c(-n3ccnc3)c(F)cc3c(=O)c(C(=O)O)cn1c23 (stereo not drawn) [F, 2,3-dihydro-9-fluoro-10-(1-imidazolyl)-3-methyl-7-oxo-7H-pyrido[1,2,3-de][1,4]benzoxazine-6-carboxylic acid] | 0.19 (≈ 0.577 µM) | 0.025 (≈ 0.0759 µM) | 0.05 (≈ 0.152 µM) | 0.39 (≈ 1.18 µM) | 0.05 (≈ 0.152 µM) | 1.56 (≈ 4.74 µM) | 3.12 (≈ 9.48 µM) | 0.1 (≈ 0.304 µM) | 3.12 (≈ 9.48 µM) | 6400 ± 1800 | 2600 ± 1000 | 1200 ± 300 | 600 ± 200 | 7500 | – | – | – | – | – | bioavailability when administered orally, in words ([10]; mice, oral, Experiment 2): inferior to the compounds of the present invention in the bioavailability |
| CCn1cc(C(=O)O)c(=O)c2cc(F)c(-n3ccnc3)c(F)c21 [I-a, 1-Ethyl-6,8-difluoro-1,4-dihydro-7-(1-imidazolyl)-4-oxoquinoline-3-carboxylic acid] | 0.39 (≈ 1.22 µM) | 0.025 (≈ 0.0783 µM) | 0.05 (≈ 0.157 µM) | 0.2 (≈ 0.626 µM) | 0.05 (≈ 0.157 µM) | 3.13 (≈ 9.8 µM) | 6.25 (≈ 19.6 µM) | 0.1 (≈ 0.313 µM) | 1.56 (≈ 4.89 µM) | 44800 ± 8900 | 39300 ± 5200 | 7600 ± 1700 | 1700 ± 500 | 64900 | 54900 ± 3900 | 70800 ± 3100 | 48000 ± 4300 | 31300 ± 3600 | 184000 | LD50 (ddY-strain male mice [8]; [16]): 773 mg/kg; LD50 at 168 h (in vivo; mice, one week, Weil method): > 4000 mg/kg |
| CCn1cc(C(=O)O)c(=O)c2cc(F)c(-n3cnc(C)c3)c(F)c21 [I-b, 1-Ethyl-6,8-difluoro-1,4-dihydro-7-[1-(4-methylimidazolyl)]-4-oxoquinoline-3-carboxylic acid] | 0.78 (≈ 2.34 µM) | 0.025 (≈ 0.075 µM) | 0.1 (≈ 0.3 µM) | 0.39 (≈ 1.17 µM) | 0.1 (≈ 0.3 µM) | 3.13 (≈ 9.39 µM) | 6.25 (≈ 18.8 µM) | 0.05 (≈ 0.15 µM) | 3.13 (≈ 9.39 µM) | 49200 ± 2500 | 29400 ± 2500 | 10000 ± 800 | 6300 ± 1100 | 67900 | 58700 ± 5300 | 62900 ± 6000 | 52000 ± 4000 | 33500 ± 4900 | 188000 | LD50 (ddY-strain male mice [8]; mouse, in vivo, iv): 593 mg/kg; LD50 at 168 h (in vivo): > 4000 mg/kg |
